Results on 24 molecules are retold here after patent publication US20120071536A1, “N-[(2-AZABICYCLO[2.1.1]HEX-1-YL)-ARYL-METHYL]-BENZAMIDE DERIVATIVES, PREPARATION THEREOF, AND THERAPEUTIC USE THEREOF” (SANOFI, priority 2009, published 2012).

Structures can show the parent of a compound that is named as a salt.

As a reminder, the melting point is the temperature of the solid-liquid transition. Consider `CCN1CC2CC1(C(NC(=O)c1cccc(C(F)(F)F)c1Cl)c1ccccc1)C2.Cl` (racemic), for which the melting point lay within 152 to 155 °C.

For `Cl.O=C(NC(c1ccccc1)C12CC(CN1)C2)c1cc(C(F)(F)F)ccc1Cl` (racemic), the melting point lay in the range of 162.5 to 163.5 °C.

Take `Nc1ccc(C(NC(=O)c2cccc(C(F)(F)F)c2Cl)C23CC(CN2)C3)cc1` (racemic) (as salt: HCl) [Compound 1, N-[(4-Aminophenyl)(2-azabicyclo[2.1.1]hex-1-yl)methyl]-2-chloro-3-(trifluoromethyl)-benzamide]: the melting point was in the range of 195 to 197 °C.

In the case of `Cc1cccc(C(NC(=O)c2cccc(C(F)(F)F)c2Cl)C23CC(CN2)C3)c1` (racemic) (as salt: HCl) [Compound 2, N-[(2-Azabicyclo[2.1.1]hex-1-yl)(m-tolyl)methyl]-2-chloro-3-(trifluoromethyl)benzamide], the melting point lay in the range of 159.5 to 160.5 °C.

`COc1cccc(C(NC(=O)c2cccc(C(F)(F)F)c2Cl)C23CC(CN2)C3)c1` (racemic) (as salt: HCl) [Compound 3, N-[(2-Azabicyclo[2.1.1]hex-1-yl)(3-methoxyphenyl)methyl]-2-chloro-3-(trifluoro-methyl)benzamide] gave a melting point of 143 to 144 °C.

The molecule `O=C(NC(c1cccc(C(F)(F)F)c1)C12CC(CN1)C2)c1cccc(C(F)(F)F)c1Cl` (racemic) (as salt: HCl) [Compound 4, N-[(2-Azabicyclo[2.1.1]hex-1-yl)[3-(trifluoromethyl)phenyl]methyl]-2-chloro-3-(trifluoromethyl)benzamide] gave a melting point of 214 to 217 °C.

In turn, `CCS(=O)(=O)c1cc(C(=O)NC(c2ccccc2)C23CC(CN2)C3)c(OC)cc1Cl` (racemic) (as salt: HCl) [Compound 15, N-[(2-Azabicyclo[2.1.1]hex-1-yl)(phenyl)methyl]-4-chloro-5-(ethanesulphonyl)-2-methoxybenzamide] gave a melting point of 232 to 233 °C.

In the case of `O=C(NC(c1ccc2ccccc2c1)C12CC(CN1)C2)c1cccc(C(F)(F)F)c1Cl` (racemic) (as salt: HCl) [Compound 17, N-[(2-Azabicyclo[2.1.1]hex-1-yl)(naphth-2-yl)methyl]-2-chloro-3-(trifluoromethyl)-benzamide], the melting point lay in the range of 135 to 170 °C.

Molecule `CCCN1CC2CC1(C(NC(=O)c1cc(Br)c(Cl)cc1N)c1ccccc1)C2` (racemic) (as salt: HCl) [Compound 21, 2-Amino-5-bromo-4-chloro-N-[(phenyl)(2-propyl-2-azabicyclo[2.1.1]hex-1-yl)methyl]-benzamide] gave a melting point of 153 to 154 °C.

For `CC(C)(O)CN1CC2CC1(C(NC(=O)c1c(Cl)ccc(C(F)(F)F)c1Cl)c1ccccc1)C2` (racemic) (as salt: HCl) [Compound 22], the melting point lay within 178.5 to 179 °C.

The molecule `O=C(NC(c1cccc(O)c1)C12CC(CN1)C2)c1cccc(C(F)(F)F)c1Cl` (racemic) (as salt: HCl) [Compound 24, N-[(2-Azabicyclo[2.1.1]hex-1-yl)(3-hydroxyphenyl)methyl]-2-chloro-3-(trifluoromethyl)-benzamide] had a melting point of 187 to 188 °C.

Take `O=C(NC(c1ccccc1)C12CC(CN1CC1CC1)C2)c1cccc(C(F)(F)F)c1Cl` (racemic) (as salt: HCl) [Compound 25, 2-Chloro-N-[(2-cyclopropylmethyl-2-azabicyclo[2.1.1]hex-1-yl)(phenyl)methyl]-3-(trifluoromethyl)benzamide]: the melting point is 240.5 to 241.5 °C.

Molecule `Cc1cccc(C)c1C(=O)NC(c1ccccc1)C12CC(CN1)C2` (racemic) (as salt: HCl) [Compound 27, N-[(2-Azabicyclo[2.1.1]hex-1-yl)(phenyl)methyl]-2,6-dimethylbenzamide] had a melting point of 273.5 to 274.5 °C.

With `CCc1ccccc1C(=O)NC(c1ccccc1)C12CC(CN1)C2` (racemic) (as salt: HCl) [Compound 28, N-[(2-Azabicyclo[2.1.1]hex-1-yl)(phenyl)methyl]-2-ethylbenzamide], the melting point fell in the range of 264 to 265 °C.

Molecule `Cc1cccc(C(NC(=O)c2c(Cl)ccc(C(F)(F)F)c2Cl)C23CC(CN2)C3)c1` (racemic) (as salt: HCl) [Compound 29, N-[(2-Azabicyclo[2.1.1]hex-1-yl)(m-tolyl)methyl]-2,6-dichloro-3-(trifluoromethyl)-benzamide] showed a melting point of 146 to 147 °C.

`CCN1CC2CC1(C(NC(=O)c1c(C)cccc1C)c1ccccc1)C2` (racemic) (as salt: HCl) [Compound 30, N-[(2-Ethyl-2-azabicyclo[2.1.1]hex-1-yl)(phenyl)methyl]-2,6-dimethylbenzamide]: the melting point was 212 to 214 °C.

Regarding `CCc1ccccc1C(=O)NC(c1ccccc1)C12CC(CN1CC)C2` (racemic) (as salt: HCl) [Compound 31, 2-Ethyl-N-[(2-ethyl-2-azabicyclo[2.1.1]hex-1-yl)(phenyl)methyl]benzamide], the melting point is 241 to 242 °C.

In the case of `Cc1c(C(F)(F)F)ccc(Cl)c1C(=O)NC(c1ccccc1)C12CC(CN1)C2` (racemic) (as salt: HCl) [Compound 32, N-[(2-Azabicyclo[2.1.1]hex-1-yl)(phenyl)methyl]-6-chloro-2-methyl-3-(trifluoromethyl)-benzamide], the melting point lay within 200 to 201 °C.

On to `O=C(NC(c1ccccc1)C12CC(CN1Cc1ccccc1)C2)c1cccc(C(F)(F)F)c1Cl` (racemic) (as salt: HCl) [Compound 33, N-[(2-Benzyl-2-azabicyclo[2.1.1]hex-1-yl)(phenyl)methyl]-2-chloro-3-(trifluoromethyl)-benzamide], for which the melting point fell in the range of 244 to 245.5 °C.

In turn, `Cc1c(C(=O)NC(c2ccccc2)C23CC(CN2)C3)cccc1C(F)(F)F` (racemic) [Compound 7, N-[(2-Azabicyclo[2.1.1]hex-1-yl)(phenyl)methyl]-2-methyl-3-(trifluoromethyl)-benzamide] gave a melting point of 146 to 147 °C.

Molecule `O=C(NC(c1ccccc1)C12CC(CN1)C2)c1c(Cl)ccc(C(F)(F)F)c1Cl` (racemic) [Compound 8, N-[(2-Azabicyclo[2.1.1]hex-1-yl)(phenyl)methyl]-2,6-dichloro-3-(trifluoromethyl)-benzamide] displayed a melting point of 80.5 to 81.5 °C.

In turn, `Cc1ccc(F)c(C(=O)NC(c2ccccc2)C23CC(CN2)C3)c1Cl` (racemic) [Compound 10, N-[(2-Azabicyclo[2.1.1]hex-1-yl)(phenyl)methyl]-2-chloro-6-fluoro-3-methylbenzamide] gave a melting point of 123 to 124 °C.

`Cc1cccc(C(=O)NC(c2ccccc2)C23CC(CN2)C3)c1Cl` (racemic) [Compound 12, N-[(2-Azabicyclo[2.1.1]hex-1-yl)(phenyl)methyl]-2-chloro-3-methylbenzamide] displayed a melting point of 139.5 to 140.5 °C.

`O=C(NC(c1ccc(F)cc1)C12CC(CN1)C2)c1cccc(C(F)(F)F)c1Cl` (racemic) [Compound 16, N-[(2-Azabicyclo[2.1.1]hex-1-yl)(4-fluorophenyl)methyl]-2-chloro-3-(trifluoromethyl)-benzamide] gave a melting point of 172.5 to 173 °C.
